Read-outs that look alike come from different tables or passages of the source.
Columns and labels:
[1] = test system: human Schlemm's canal (SC) cell monolayers
Protocol: (§1) SC Cells: Human cadaveric eye tissue was obtained from Donor Network of Arizona, San Diego Lions Eye Bank or North Carolina Lions Eye Bank within 48 hours of death for whole eyes stored in moist chambers, and within 96 hours for non-transplantable corneal anterior segments stored in Optisol (Chiron Vision, Clairmont, Calif.). Human SC cells were isolated from the cadaveric eye tissue using gelatin-coated cannulas, as described previously (Stamer W D, et al Invest Opthalmol Vis Sci 1998; 39:1804-1812) or by differential dissection (O'Brien E, Invest. Opthalmol. Vis. Sci. 2000; 41:3842-3849). Cells used in perfusion studies were isolated by both methods while only cells isolated by differential dissection were used in morphology experiments. Cells were grown and maintained in Dulbecco's Modified Eagle Medium (DMEM) and maintained in humidified air containing 5% CO2 at 37° C., as described previously (Stamer W D, et al Invest Opthalmol Vis Sci 1998; 39:1804-1812). Human SC cells were seeded at 100,000 cells/cm^2onto 1-cm^2 Snapwell Filters (Snapwell; Costar, Acton, Mass.) with 0.4-μm pore diameter in 10% FBS/DMEM. Primary cultures of eight SC cell strains were isolated from eight different cadaveric eyes without a history of glaucoma and used in the present study (SC3, SC6, SC10, SC11, SC41, SC42, SC 57 and SC68).
(§2) Transendothelial electrical resistance (TEER) of cell monolayers cultured on Snapwell filters was measured using a TEER measurement chamber (ENDOHM-24; World Precision Instruments) in conjunction with an epithelial voltohmmeter (EVOM; World Precision Instruments). Following three rinses with prewarmed 20 mM HEPES (Sigma, St. Louis, Mo.) buffered DMEM (serum-free, pH 7.4; HEPES-DMEM), filters were carefully transferred to the TEER measurement chamber filled with HEPES-DMEM. […] Pressure in the upstream compartment was generated by an elevated reservoir of HEPES-DMEM, with pressure recorded using a pressure transducer (AH 60-3002; Harvard Apparatus, Holliston, Mass.), while the downstream compartment was vented to atmospheric pressure. The rate of fluid flow through the chamber was calculated from the weight change per unit time of the reservoir measured using an isometric transducer (AH 60-2994; Harvard Apparatus). Pressure and weight data were recorded simultaneously at 30 times/sec onto hard drive of computer using a Data Acquisition System (MP100WSW; Biopac Systems, Inc., Santa Barbara, Calif.).
(§3) Once stable TEER was achieved, a valve between the reservoir and chamber was opened to expose the upstream chamber to pressure. TEER, flow, and pressure measurements were recorded for 20 minutes to establish baseline values.

[2] = test system: MDCK cell monolayers
Protocol: (§4) MDCK Cells: Madin-Darby Canine Kidney cells (MDCK), were used as a control to characterize perfusion system and for comparisons to SC monolayers. […] MDCK cells thus served as a positive control for comparisons with SC cells in subsequent experiments. MDCK Cells used in the present study were a gift from Dr. Ronald Lynch (University of Arizona) and were used between passages 14-16. Cells were grown in DMEM and maintained in humidified air containing 5% CO2 at 37° C. for at least three weeks after reaching confluence before experimentation.
as §2
as §3, with “values. […] The medium in the upstream chamber was then exchanged with […] HEPES-DMEM at a rate of 2.5 ml/min, and a second 10-minute baseline period was measured.” for “values.”

[3] = test system: human Schlemm's canal (SC) cell monolayers; remark: listed apart in the source
Protocol: as §1
as §2, with “Instruments).” for “Instruments). Following three rinses with prewarmed 20 mM HEPES (Sigma, St. Louis, Mo.) buffered DMEM (serum-free, pH 7.4; HEPES-DMEM), filters were carefully transferred to the TEER measurement chamber filled with HEPES-DMEM.”
as §3, with “values. […] The medium in the upstream chamber was then exchanged with […] HEPES-DMEM at a rate of 2.5 ml/min, and a second 10-minute baseline period was measured.” for “values.”

[4] = test system: MDCK cell monolayers; remark: listed apart in the source
Protocol: as §4
Transendothelial electrical resistance (TEER) of cell monolayers cultured on Snapwell filters was measured using a TEER measurement chamber (ENDOHM-24; World Precision Instruments) in conjunction with an epithelial voltohmmeter (EVOM; World Precision Instruments). Following three rinses with prewarmed 20 mM HEPES (Sigma, St. Louis, Mo.) buffered DMEM (serum-free, pH 7.4; HEPES-DMEM), filters were carefully transferred to the TEER measurement chamber filled with HEPES-DMEM. […] The Snapwell filters containing the cell monolayers were then carefully placed into an Ussing-type chamber (Ussing system CHM5; World Precision Instruments, Sarasota, Fla.) filled with HEPES-DMEM and maintained at 37° C. in an air incubator for 15 minutes prior to pressure application. Filters were oriented such that the apical surface of cell monolayers faced the upstream chamber. Flow through cell monolayers was a function of the pressure gradient between the upstream and downstream compartments of the chamber. Pressure in the upstream compartment was generated by an elevated reservoir of HEPES-DMEM, with pressure recorded using a pressure transducer (AH 60-3002; Harvard Apparatus, Holliston, Mass.), while the downstream compartment was vented to atmospheric pressure. The rate of fluid flow through the chamber was calculated from the weight change per unit time of the reservoir measured using an isometric transducer (AH 60-2994; Harvard Apparatus). Pressure and weight data were recorded simultaneously at 30 times/sec onto hard drive of computer using a Data Acquisition System (MP100WSW; Biopac Systems, Inc., Santa Barbara, Calif.).
as §3, with “values. […] The medium in the upstream chamber was then exchanged with […] HEPES-DMEM at a rate of 2.5 ml/min, and a second 10-minute baseline period was measured.” for “values.”
Hydraulic conductivity was measured continuously and TEER measurements were then taken every five minutes for the duration of the trial.

[5] = test system: SC cell monolayers (cell margins)
Protocol: as §1

[6] = test system: MDCK cell monolayers (cell borders); conditions: by 60 seconds after Na2EDTA, data not shown
Protocol: as §4

For `O=C([O-])CN(CCN(CC(=O)[O-])CC(=O)O)CC(=O)O.[Na+].[Na+]` [Na2EDTA], the “time required for functional return after washout of Na2EDTA” value ([1]; SC monolayers, functionally via TEER measurements) was 2 h, the “change in TEER decrease relative to 30-minute baseline in presence of pressure (paired t-test)” value ([1]; SC, 5 mM Na2EDTA) was “no significant change” and the “average rate of TEER decrease after Na2EDTA treatment” value ([1]; SC, 5 mM Na2EDTA for 5 min, 4-6 mm Hg, n=5, +/- SEM) was 0.34 (+/−0.26 SEM) Ωcm^2/min. The “average rate of change of TEER following rinse with normal medium” value ([1]; SC, after 5 mM Na2EDTA for 5 min) was “not significantly different from pre-Na2EDTA rates”, the “average rate of TEER decrease after Na2EDTA treatment” value ([2]; 25 mM Na2EDTA for 5 min, 14-16 mm Hg, n=4, +/- SEM) was 1.9 (+/−0.12 SEM) Ωcm^2/min and the “change in TEER relative to baseline in presence of pressure (paired t-test)” value ([2]; 25 mM Na2EDTA, p=0.06) was “approached significance”. The “average rate of change of TEER following rinse with normal medium” value ([2]; after 25 mM Na2EDTA for 5 min) was “not significantly different from pre-Na2EDTA rates”, the “impact of lower concentrations on HC or TEER” value ([3]; SC monolayers, 0.5-2 mM Na2EDTA, n=6) was “not to impact significantly” and the “minimum Na2EDTA needed to effect both hydraulic conductivity and TEER” value ([3]; SC monolayers, titration experiments, time course of the experiments, n=13-15, data not shown) was 5 mM. For the same molecule, the “percent change in HC relative to baseline following Na2EDTA treatment versus percent change between the two baseline measurements” value ([3]; SC, paired t-test, p<0.05) was “significantly greater”, the “percent change in HC relative to baseline following post-Na2EDTA rinse versus percent change between the two baseline measurements” value ([3]; SC, paired t-test, p<0.05) was “significantly greater” and the “recovery of TEER and hydraulic conductivity shortly after washout of Na2EDTA” value ([4]; MDCK cell monolayers, perfusion experiments) was “partial recovery”. For the same molecule, the “minimum Na2EDTA required to effect both hydraulic conductivity and TEER” value ([4]; MDCK cell monolayers, titration experiments, time course of the experiments, n=13-15, data not shown) was 25 mM, the “percent change in HC relative to baseline following post-Na2EDTA rinse versus percent change between the two baseline measurements” value ([4]; MDCK, paired t-test) was “not” and the “percent change in HC relative to baseline following Na2EDTA treatment versus percent change between the two baseline measurements” value ([4]; MDCK, paired t-test, p<0.05) was “significantly greater”. The “time required for cell margins to return to original position / cell-cell contacts to return visually after replacement of normal medium” value ([5]; 10 mM Na2EDTA for 5 minutes, then normal medium, data not shown) was “about 30 minutes”, the “retraction of cell margins from each other” value ([5]; 60 seconds after addition of 10 mM Na2EDTA) was “about 2 μm” and the “retraction of cell margins from each other” value ([5]; 90 seconds after addition of 10 mM Na2EDTA) was “about 3 μm”. The “effect on cell borders” value [6] was “retracted”.
